From patent publication US20140081017A1, “Histone Deacetylase Inhibitors for Enhancing Activity of Antifungal Agents” (METHYLGENE INC., priority 2012, published 2014)
≈ marks a conversion by molar mass, not a printed value. Read-outs that look alike come from different tables or passages of the source.

Experiments:
Candida glabrata = assay: Minimal Inhibitory Concentration (MIC) assay, broth microdilution per CLSI; assay type: cell-based; conditions: Nakaseomyces glabratus, read-out: Minimum Inhibitory Concentrations against Yeast Isolates, Candida glabrata;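 further: two read times 24 hr and 48 hr of incubation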
Outline: (§1)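 Following CLSI procedure, compounds dissolved in DMSO on the assay day are diluted twofold and added to MOPS-buffered RPMI at pH 7.0. Saline suspensions of the yeasts, matched to 0.5 McFarland, are diluted 1:100 and inoculated, then plates incubate at 35° C for about 24-48 hr.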

Candida albicans = assay: as above; assay type: cell-based; conditions: Candida albicans, read-out: Minimum Inhibitory Concentrations against Yeast Isolates, Candida albicans;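 further: two read times 24 hr and 48 hr of incubation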
Outline: as §1

Candida parapsilosis = assay: as above; assay type: cell-based; conditions: Lodderomyces parapsilosis, read-out: Minimum Inhibitory Concentrations against Yeast Isolates, Candida parapsilosis;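 further: two read times 24 hr and 48 hr of incubation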
Outline: as §1

C. glabrata = assay: Checkerboard FIC assay in combination with fluconazole (MIC alone and in combination, FICI); assay type: cell-based, Candida glabrata; conditions: for FICI of combination resulting in fluconazole MIC of: 2 ug/mL / FICI of combination resulting in fluconazole MIC of: 4 ug/mL / FICI of combination resulting in fluconazole MIC of: 8 ug/mL: FICI calculated using a fluconazole MIC of 16 μg/mL; for FICI of combination resulting in fluconazole MIC of: 2 ug/mL (value in parenthesis) / FICI of combination resulting in fluconazole MIC of: 4 ug/mL (value in parenthesis) / FICI of combination resulting in fluconazole MIC of: 8 ug/mL (value in parenthesis): FICI using a fluconazole MIC of 128 μg/mL; for MIC: Nakaseomyces glabratus; for Multiple of compound MIC to synergize fluconazole MIC to 2 ug/mL / Multiple of compound MIC to synergize fluconazole MIC to 4 ug/mL / Multiple of compound MIC to synergize fluconazole MIC to 8 ug/mL: concentration in combination as multiple of the compound's MIC alone; for Multiple of compound MIC to synergize fluconazole MIC to 2 ug/mL: fluconazole MIC 2 ug/mL; for Multiple of compound MIC to synergize fluconazole MIC to 4 ug/mL: fluconazole MIC 4 ug/mL; for Multiple of compound MIC to synergize fluconazole MIC to 8 ug/mL: fluconazole MIC 8 ug/mL; for Concentration of Methylgene compound to synergize fluconazole MIC to 2 ug/mL / Concentration of Methylgene compound to synergize fluconazole MIC to 4 ug/mL / Concentration of Methylgene compound to synergize fluconazole MIC to 8 ug/mL: in combination with fluconazole; for Concentration of Methylgene compound to synergize fluconazole MIC to 2 ug/mL: fluconazole MIC lowered to 2 ug/mL; for Concentration of Methylgene compound to synergize fluconazole MIC to 4 ug/mL: fluconazole MIC lowered to 4 ug/mL; for Concentration of Methylgene compound to synergize fluconazole MIC to 8 ug/mL: fluconazole MIC lowered to 8 ug/mL
Outline: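 C. glabrata was tested by CLSI broth microdilution checkerboard, crossing 2-fold dilutions of compound with 2-fold dilutions of fluconazole. The medium was RPMI with 0.165 M MOPS at pH 7.0, inoculated from a 0.5 McFarland suspension diluted 1:100, then incubated about 48 h at 35 °C. Single-agent MICs gave the FIC and FICI values.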

[1] = 24 hr reading (first value of cell 24 hr/48 hr)
[2] = 48 hr reading (second value of cell 24 hr/48 hr)
[3] = MIC of the example compound alone against C. glabrata in the checkerboard assay, approximately 48 hr, read-out: Methylgene MIC
[4] = test compound alone, C. glabrata, approx. 48 hr at 35° C., read-out: Compound MIC

| Structure (SMILES) | MIC (Candida glabrata; [1]) [µg/mL] | MIC (Candida glabrata; [2]) [µg/mL] | MIC (Candida albicans; [1]) [µg/mL] | MIC (Candida albicans; [2]) [µg/mL] | MIC (Candida parapsilosis; [1]) [µg/mL] | MIC (Candida parapsilosis; [2]) [µg/mL] | FICI of combination resulting in fluconazole MIC of: 2 ug/mL (C. glabrata; C. glabrata) | FICI of combination resulting in fluconazole MIC of: 4 ug/mL (C. glabrata; C. glabrata) | FICI of combination resulting in fluconazole MIC of: 8 ug/mL (C. glabrata; C. glabrata) | FICI of combination resulting in fluconazole MIC of: 2 ug/mL (value in parenthesis) (C. glabrata; C. glabrata) | FICI of combination resulting in fluconazole MIC of: 4 ug/mL (value in parenthesis) (C. glabrata; C. glabrata) | FICI of combination resulting in fluconazole MIC of: 8 ug/mL (value in parenthesis) (C. glabrata; C. glabrata) | MIC (C. glabrata; [3]) [µg/mL] | MIC (C. glabrata; [4]) [µg/mL] | Multiple of compound MIC to synergize fluconazole MIC to 2 ug/mL (C. glabrata) | Multiple of compound MIC to synergize fluconazole MIC to 4 ug/mL (C. glabrata) | Multiple of compound MIC to synergize fluconazole MIC to 8 ug/mL (C. glabrata) | Concentration of Methylgene compound to synergize fluconazole MIC to 2 ug/mL (C. glabrata; C. glabrata) [µg/mL] | Concentration of Methylgene compound to synergize fluconazole MIC to 4 ug/mL (C. glabrata; C. glabrata) [µg/mL] | Concentration of Methylgene compound to synergize fluconazole MIC to 8 ug/mL (C. glabrata; C. glabrata) [µg/mL] |
| --- | --- | --- | --- | --- | --- | --- | --- | --- | --- | --- | --- | --- | --- | --- | --- | --- | --- | --- | --- | --- |
| COCCOCCOCCOCCOCCOc1ccc(CCCCc2ccc(CC(=O)NO)cc2)cc1 [Example 10, 2-(4-(4-(4-(2,5,8,11,14-pentaoxahexadecan-16-yloxy)phenyl)butyl)phenyl)-N-hydroxyacetamide] | > 64 | > 64 | > 64 | > 64 | > 64 | > 64 | 0.375 | 0.500 | 0.625 | 0.266 | 0.281 | 0.188 | 2 | 2 | (¼x) | (¼x) | (⅛x) | 0.5 | 0.5 | 0.25 |
| Nc1ccccc1CCCCc1ccc(CC(=O)NO)cc1 [Example 33, 2-(4-(4-(2-aminophenyl)butyl)phenyl)-N-hydroxyacetamide] | 4 (≈ 13.4 µM) | 8 (≈ 26.8 µM) | 8 (≈ 26.8 µM) | 16 (≈ 53.6 µM) | 8 (≈ 26.8 µM) | 16 (≈ 53.6 µM) | 0.313 | 0.375 | 0.500 | 0.266 | 0.281 | 0.313 | 8 | 8 | (¼x) | (¼x) | (¼x) | 2 | 2 | 2 |
| O=C(Cc1ccc(CCCC(O)c2ccccc2)cc1)NO (stereo not drawn) [Example 25, N-hydroxy-2-(4-(4-hydroxy-4-phenylbutyl)phenyl)acetamide] | 16 (≈ 53.4 µM) | 64 (≈ 214 µM) | > 64 | > 64 | > 64 | > 64 | 0.563 | 0.375 | 0.375 | 0.516 | 0.281 | 0.188 | > 16 | > 16 | – | – | – | 16 | 8 | 4 |
| O=C(Cc1ccc(CCCCc2cccc(NC(=O)CO)c2)cc1)NO [Example 41, N-hydroxy-2-(4-(4-(3-(2-hydroxyacetamido)phe-nyl)butyl)phenyl)acetamide] | 4 (≈ 11.2 µM) | 16 (≈ 44.9 µM) | > 32 | > 32 | > 32 | > 32 | 0.563 | 0.375 | 0.500 | 0.516 | 0.281 | 0.313 | 16 | 16 | (½x) | (¼x) | (¼x) | 8 | 4 | 4 |

Second part, the molecule after the results:

| MIC (Candida glabrata; [1]) [µg/mL] | MIC (Candida glabrata; [2]) [µg/mL] | MIC (Candida albicans; [1]) [µg/mL] | MIC (Candida albicans; [2]) [µg/mL] | MIC (Candida parapsilosis; [1]) [µg/mL] | MIC (Candida parapsilosis; [2]) [µg/mL] | FICI of combination resulting in fluconazole MIC of: 2 ug/mL (C. glabrata; C. glabrata) | FICI of combination resulting in fluconazole MIC of: 4 ug/mL (C. glabrata; C. glabrata) | FICI of combination resulting in fluconazole MIC of: 8 ug/mL (C. glabrata; C. glabrata) | FICI of combination resulting in fluconazole MIC of: 2 ug/mL (value in parenthesis) (C. glabrata; C. glabrata) | FICI of combination resulting in fluconazole MIC of: 4 ug/mL (value in parenthesis) (C. glabrata; C. glabrata) | FICI of combination resulting in fluconazole MIC of: 8 ug/mL (value in parenthesis) (C. glabrata; C. glabrata) | MIC (C. glabrata; [3]) [µg/mL] | MIC (C. glabrata; [4]) [µg/mL] | Multiple of compound MIC to synergize fluconazole MIC to 2 ug/mL (C. glabrata) | Multiple of compound MIC to synergize fluconazole MIC to 4 ug/mL (C. glabrata) | Multiple of compound MIC to synergize fluconazole MIC to 8 ug/mL (C. glabrata) | Concentration of Methylgene compound to synergize fluconazole MIC to 2 ug/mL (C. glabrata; C. glabrata) [µg/mL] | Concentration of Methylgene compound to synergize fluconazole MIC to 4 ug/mL (C. glabrata; C. glabrata) [µg/mL] | Concentration of Methylgene compound to synergize fluconazole MIC to 8 ug/mL (C. glabrata; C. glabrata) [µg/mL] | Structure (SMILES) |
| --- | --- | --- | --- | --- | --- | --- | --- | --- | --- | --- | --- | --- | --- | --- | --- | --- | --- | --- | --- | --- |
| 2 (≈ 6.64 µM) | 4 (≈ 13.3 µM) | 4 (≈ 13.3 µM) | 8 (≈ 26.5 µM) | 8 (≈ 26.5 µM) | 16 (≈ 53.1 µM) | 0.313 | 0.375 | 0.375 | 0.266 | 0.281 | 0.188 | 4 | 4 | (¼x) | (¼x) | (⅛x) | 1 | 1 | 0.5 | O=C(Cc1ccc(C(F)CCCc2ccccc2)cc1)NO (stereo not drawn) [Example 61, 2-(4-(1-fluoro-4-phenylbutyl)phenyl)-N-hydroxyacetamide] |
| 2 (≈ 6.64 µM) | 2 (≈ 6.64 µM) | 4 (≈ 13.3 µM) | 4 (≈ 13.3 µM) | 4 (≈ 13.3 µM) | 8 (≈ 26.5 µM) | 0.563 | 0.625 | 0.500 | 0.516 | 0.531 | 0.313 | 2 | 2 | (½x) | (½x) | (¼x) | 1 | 1 | 0.5 | O=C(Cc1ccc(CCC(F)Cc2ccccc2)cc1)NO (stereo not drawn) [Example 60, 2-(4-(3-fluoro-4-phenylbutyl)phenyl)-N-hydroxyacetamide] |
